In publication PMC4774911, “Biochemical Screening of Five Protein Kinases from Plasmodium falciparum against 14,000 Cell-Active Compounds” (PLoS ONE, 2016):
Read-outs that look alike come from different tables or passages of the source.

Legend:
[1] = test system: P. falciparum 3D7 cells; details: Nature 2010, cited from earlier work
[2] = test system: HepG2 cells; details: Nature 2010, cited from earlier work
[3] = test system: 3D7 PFLDH; set-up: method as in F.J. Gamo et al., Nature 2010; details: downloaded from ChEMBL ref F.J. Gamo et al., Nature 2010; cited from earlier work
[4] = test system: DD2; set-up: method as in F.J. Gamo et al., Nature 2010; details: P. falciparum Dd2; downloaded from ChEMBL ref F.J. Gamo et al., Nature 2010; cited from earlier work
[5] = target: T1, Plasmodium falciparum calcium-dependent protein kinase 1 (CDPK1) (Plasmodium falciparum, UniProt P62344); assay: CDPK1 Kinase-Glo ATP-consumption screen and dose-response; format: biochemical; details: hits below 1 uM; read-out: CDPK1 IC50
T1 construct: 6-Histidine (N); made in house
Experimental: Biochemical assays were performed in white 384-well plates (Nunc). Liquid transfers were done manually with 8-channel pipets. Compounds were initially tested in a single-point screen (final concentration 1 μM). […] The catalytic activity of each kinase was considered proportional to ATP consumed, as determined from measurements of residual [ATP] with the luciferase-based reagent Kinase-Glo (Promega) following incubation. Luminescence (proportional to residual [ATP]) was measured on the plate readers FLx800 (BioTek Instruments, Winooski, VT, USA) and MicroBeta^2 (PerkinElmer, Waltham, MA, USA). Incubation times were chosen to ensure near-complete ATP depletion in the absence of inhibition, thus maximizing the difference in signal between inhibited and uninhibited wells.
40 μM Syntide-2 was used as a substrate; BKI-1 [14] was used as a control inhibitor, while reaction mixtures lacking Syntide-2 were included as an additional negative control. Incubation time was 90 minutes. Reactions were terminated by adding excess EGTA (5 mM), which sequesters Ca^2+ and halts calcium-dependent kinase activity.

[6] = test system: DD2; set-up: method as in F.J. Gamo et al., Nature 2010; details: downloaded from ChEMBL, ref F.J. Gamo et al., Nature 2010; cited from earlier work
[7] = test system: 3D7 PFLDH; set-up: method as in F.J. Gamo et al., Nature 2010; concentration or dose not given beside the values; details: downloaded from ChEMBL, ref F.J. Gamo et al., Nature 2010; cited from earlier work
[8] = P. falciparum 3D7, downloaded from ChEMBL ref F.J. Gamo et al.
[9] = HepG2 cells, downloaded from ChEMBL ref F.J. Gamo et al.
[10] = 3D7, downloaded from ChEMBL, ref F.J. Gamo et al.
[11] = HepG2, downloaded from ChEMBL, ref F.J. Gamo et al.

T1 sequence (P62344 whole entry): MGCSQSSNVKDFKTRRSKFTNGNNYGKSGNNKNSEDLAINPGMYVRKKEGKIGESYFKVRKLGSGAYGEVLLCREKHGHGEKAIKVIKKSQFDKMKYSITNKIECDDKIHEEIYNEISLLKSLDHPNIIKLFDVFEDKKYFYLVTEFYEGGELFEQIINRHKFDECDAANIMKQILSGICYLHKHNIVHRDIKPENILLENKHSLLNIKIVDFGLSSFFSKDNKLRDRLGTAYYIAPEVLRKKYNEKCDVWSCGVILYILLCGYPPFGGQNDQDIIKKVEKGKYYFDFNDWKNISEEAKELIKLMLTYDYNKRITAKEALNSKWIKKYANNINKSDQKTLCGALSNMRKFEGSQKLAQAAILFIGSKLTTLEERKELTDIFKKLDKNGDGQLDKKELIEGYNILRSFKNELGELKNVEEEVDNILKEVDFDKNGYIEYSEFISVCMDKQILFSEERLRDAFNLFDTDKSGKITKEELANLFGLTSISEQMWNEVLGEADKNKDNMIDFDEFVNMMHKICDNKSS

Row | IC50 [5] [nM] | SMILES | PCT_IHB_3D7 [1, 8] | pXC50_3D7 [1, 8] | PCT_INHIB_HEPG2 [2, 9] | PCT_INHIB_3D7_PFLDH [3] | PCT_INHB_DD2 [4] | PCT_IHB_3D7 [1, 10] [%] | pXC50_3D7 [1, 10] | PCT_INHB_DD2 [6] [%] | PCT_INHIB_HEPG2 [2, 11] [%] | PCT_INHIB_3D7_PFLDH [7] [%]
1 | 150 | Nc1ncc(-c2cn[nH]c2)cc1-c1nc2ccc(F)cc2[nH]1 [TCMDC-133559] | 100 | 6.137 | 38 | 0 | 53 |  |  |  |  | 
2 | 834 | Nc1ncc(-c2cn[nH]c2)cc1-c1nc2ccc(Cl)cc2[nH]1 [TCMDC-133560] | 100 | 6.098 | 46 | 0 | 100 |  |  |  |  | 
3 | 296 | Cc1cccc2[nH]c(-c3cc(-c4cn[nH]c4)cnc3N)nc12 [TCMDC-133561] | 100 | 6.6562 | 37 | 0 | 93 |  |  |  |  | 
4 | 280 | Nc1ncc(-c2cn[nH]c2)cc1-c1nc2cc(Cl)cnc2[nH]1 [TCMDC-133562] | 100 | 6.039 | 40 | 1 | 70 |  |  |  |  | 
5 | 246 | CNC(=O)c1ccccc1Nc1nc(Nc2ccc(C(=O)O)cc2)ncc1Cl.Cl [TCMDC-133803] |  |  |  |  |  | 92 | 6.022 | 92 | 60 | 0
6 | 12 | CN1CCN(c2ccc(Nc3ncc(Cl)c(Nc4cccnc4C(N)=O)n3)cc2)CC1.Cl [TCMDC-134164] |  |  |  |  |  | 95 | 6.816 | 97 | 99 | 0
7 | 186 | NC(=O)c1ccccc1Nc1nc(Nc2cc[nH]n2)ncc1Cl [TCMDC-134169] |  |  |  |  |  | 96 | 6.019 | 93 | 67 | 0
8 | 765 | Cl.c1ccc(Oc2ccc(Nc3ccnc(Nc4ccc5cn[nH]c5c4)n3)cc2)cc1 [TCMDC-138574] |  |  |  |  |  | 94 | 6.135 | 33 | 6 | 0
9 | 798 | Cl.N#CCc1ccc(Nc2nccc(Nc3ccc(Oc4ccccc4)cc3)n2)cc1 [TCMDC-138577] |  |  |  |  |  | 98 | 6.094 | 47 | 0 | 6
10 | 701 | Cl.c1ccc(Oc2ccc(Nc3ccnc(Nc4ccc(OCCN5CCCCC5)cc4)n3)cc2)cc1 [TCMDC-138583] |  |  |  |  |  | 97 | 6.219 | 66 | 23 | 0
11 | 425 | CC(=O)Nc1cccc(Nc2nccc(Nc3ccc(Oc4ccccc4)cc3)n2)c1.Cl [TCMDC-138590] |  |  |  |  |  | 100 | 6.128 | 99 | 15 | 0
12 | 213 | O=C(NCCN1CCCC1)c1cccc(Nc2nccc(Nc3ccc(Oc4ccccc4)cc3)n2)c1 [TCMDC-138602] |  |  |  |  |  | 100 | 6.184 | 18 | 33 | 0
13 | 250 | O=C(NCCN1CCCCC1)c1cccc(Nc2nccc(Nc3ccc(Oc4ccccc4)cc3)n2)c1 [TCMDC-138603] |  |  |  |  |  | 99 | 6.563 | 86 | 50 | 0
14 | 180 | O=C(NCCCN1CCOCC1)c1cccc(Nc2nccc(Nc3ccc(Oc4ccccc4)cc3)n2)c1 [TCMDC-138604] |  |  |  |  |  | 98 | 6.116 | 22 | 34 | 0
15 | 243 | O=C(NCCCN1CCCCC1)c1cccc(Nc2nccc(Nc3ccc(Oc4ccccc4)cc3)n2)c1 [TCMDC-138605] |  |  |  |  |  | 96 | 6.086 | 12 | 47 | 2
16 | 336 | CCCN1CCN(CCNC(=O)c2cccc(Nc3nccc(Nc4ccc(Oc5ccccc5)cc4)n3)c2)CC1 [TCMDC-138606] |  |  |  |  |  | 99 | 6.622 | 96 | 56 | 0
17 | 220 | O=C(NCCN1CCC(c2ccncc2)CC1)c1cccc(Nc2nccc(Nc3ccc(Oc4ccccc4)cc3)n2)c1 [TCMDC-138607] |  |  |  |  |  | 100 | 6.773 | 91 | 60 | 0
18 | 103 | O=C(NCCN1CCCCC1)c1ccc(Nc2nccc(Nc3ccc(Oc4ccccc4)cc3)n2)cc1 [TCMDC-138608] |  |  |  |  |  | 100 | 6.257 | 91 | 58 | 0
19 | 94 | O=C(NCCCN1CCCCC1)c1ccc(Nc2nccc(Nc3ccc(Oc4ccccc4)cc3)n2)cc1 [TCMDC-138609] |  |  |  |  |  | 100 | 6.204 | 61 | 30 | 0
20 | 135 | O=C(NCCN1CCC(c2ccncc2)CC1)c1ccc(Nc2nccc(Nc3ccc(Oc4ccccc4)cc3)n2)cc1 [TCMDC-138610] |  |  |  |  |  | 100 | 6.14 | 90 | 17 | 1
21 | 801 | CN1CCN(Cc2cccc(Nc3nccc(Nc4ccc(Oc5ccccc5)cc4)n3)c2)CC1 [TCMDC-138614] |  |  |  |  |  | 97 | 6.529 | 80 | 30 | 2
22 | 261 | CN1CCN(CCCNCc2cccc(Nc3nccc(Nc4ccc(Oc5ccccc5)cc4)n3)c2)CC1 [TCMDC-138616] |  |  |  |  |  | 100 | 6.117 | 80 | 97 | 0
23 | 139 | CN1CCN(CCCNCc2ccc(Nc3nccc(Nc4ccc(Oc5ccccc5)cc4)n3)cc2)CC1 [TCMDC-138621] |  |  |  |  |  | 100 | 6.197 | 9 | 17 | 0
24 | 114 | Cn1c(Nc2cc(C(C)(C)C)on2)nc2cc(Nc3ccnc(Nc4cccc(CS(C)(=O)=O)c4)n3)ccc21 [TCMDC-141893] |  |  |  |  |  | 99 | 6.243 | 94 | 63 | 0

Row | SMILES | IC50 [5] [nM] | PCT_IHB_3D7 [1, 8] | pXC50_3D7 [1, 8] | PCT_INHIB_HEPG2 [2, 9] | PCT_INHIB_3D7_PFLDH [3] | PCT_INHB_DD2 [4] | PCT_IHB_3D7 [1, 10] [%] | pXC50_3D7 [1, 10] | PCT_INHB_DD2 [6] [%] | PCT_INHIB_HEPG2 [2, 11] [%] | PCT_INHIB_3D7_PFLDH [7] [%]
25 | CCn1c(-c2nonc2N)nc2c(-c3ccc(CO)o3)ncc(OCCCN)c21.O=C(O)C(F)(F)F [TCMDC-133807] | 51 |  |  |  |  |  | 93 | 5.866 | 97 | 0 | 0
26 | O=C(O)C(F)(F)F.O=c1[nH]ccc2nc(N[C@@H]3CCNC3)nc(Nc3ccc4c(c3)S(=O)(=O)CC4)c12 [TCMDC-135044] | 235 |  |  |  |  |  | 100 | 6.4233 | 99 | 0 | 0
27 | CCOC(=O)c1cccc(NC(=O)Nc2cccc(-c3ncc(OCCCN)c4c3nc(-c3nonc3N)n4CC)c2)c1.O=C(O)C(F)(F)F [TCMDC-136205] | 294 |  |  |  |  |  | 100 | 6.0485 | 98 | 16 | 2
28 | Cc1ccc(Nc2nc3cc(N(C)c4ccnc(Nc5cccc(CCS(C)(=O)=O)c5)n4)ccc3n2C)cc1.O=C(O)C(F)(F)F [TCMDC-138853] | 160 |  |  |  |  |  | 99 | 6.469 | 73 | 78 | 4
29 | Cc1ccc(Nc2nccc(N(C)c3ccc4c(c3)nc(NC(=O)Cc3ccc(Cl)c(Cl)c3)n4C)n2)cc1S(N)(=O)=O.O=C(O)C(F)(F)F [TCMDC-141965] | 345 |  |  |  |  |  | 94 | 5.954 | 60 | 71 | 0
